Patent publication US10448639B2, “Fungicidal pyrazoles” (FMC CORPORATION, priority 2009, dated 2019)

Key:
[1] = system: Erysiphe graminis f sp. tritici; experiment: Test J: wheat powdery mildew, preventive spray on wheat seedlings, visual disease rating; conditions: for Test J rating (% disease control) / Test J disease control rating: wheat powdery mildew, 100 = 100% disease control; for Test J disease control rating: sprayed the day before inoculation, 0 = no disease control relative to controls
Alternaria solani = experiment: Test C: tomato early blight, preventive spray on tomato seedlings, visual disease rating; conditions: for Test C rating (% disease control) / Test C disease control rating: tomato early blight, 100 = 100% disease control; for Test C disease control rating: 0 = no disease control relative to controls
Septoria tritici = experiment: Test G: wheat leaf blotch, preventive spray on wheat seedlings, visual disease rating; conditions: for Test G rating (% disease control) / Test G disease control rating: wheat leaf blotch, 100 = 100% disease control; for Test G disease control rating: sprayed the day before inoculation, 0 = no disease control relative to controls
[2] = system: Puccinia recondita f. sp. tritici; experiment: Test I: wheat leaf rust, preventive spray on wheat seedlings, visual disease rating; conditions: for Test I rating (% disease control) / Test I disease control rating: wheat leaf rust, 100 = 100% disease control; for Test I disease control rating: sprayed the day before inoculation, 0 = no disease control relative to controls
Septoria nodorum = experiment: Test F: Septoria glume blotch, preventive spray on wheat seedlings, visual disease rating; conditions: for Test F rating (% disease control) / Test F disease control rating: 100 = 100% disease control; for Test F disease control rating: 0 = no disease control relative to controls
Botrytis cinerea = experiment: Test B: tomato Botrytis, preventive spray on tomato seedlings, visual disease rating; conditions: for Test B rating (% disease control) / Test B disease control rating: tomato Botrytis, 100 = 100% disease control; for Test B disease control rating: 0 = no disease control relative to controls
[3] = system: Puccinia recondita f. sp. tritici; experiment: Test H: wheat leaf rust, curative spray on inoculated wheat seedlings, visual disease rating; conditions: for Test H rating (% disease control) / Test H disease control rating: wheat leaf rust, 100 = 100% disease control; for Test H disease control rating: sprayed after inoculation, 0 = no disease control relative to controls
[4] = preventive spray, 0 = no control
[5] = Septoria glume blotch on wheat, preventive spray, 0 = no control
[6] = 0 = no control relative to controls
[7] = preventive, 0 = no control relative to controls
[8] = Septoria glume blotch, 0 = no control relative to controls
[9] = curative, 0 = no control relative to controls

SMILES	Test J rating (% disease control) [1, 4] [%]	Test C rating (% disease control) (Alternaria solani; [4]) [%]	Test G rating (% disease control) (Septoria tritici; [4]) [%]	Test I rating (% disease control) [2, 4] [%]	Test F rating (% disease control) (Septoria nodorum; [5]) [%]	Test B rating (% disease control) (Botrytis cinerea; [4]) [%]	Test H rating (% disease control) ([3]; curative spray, 0 = no control) [%]	Test J rating (% disease control) [1, 6] [%]	Test C rating (% disease control) (Alternaria solani; [6]) [%]	Test G rating (% disease control) (Septoria tritici; [6]) [%]	Test I rating (% disease control) [2, 7] [%]	Test F rating (% disease control) (Septoria nodorum; [8]) [%]	Test B rating (% disease control) (Botrytis cinerea; [6]) [%]	Test H rating (% disease control) [3, 9] [%]	also measured
COc1cc(F)c(-c2c(C)nn(C)c2Nc2ccc(OC)cc2OC)c(F)c1 [compound 51]	78	0	100	89	0	100	0	–	–	–	–	–	–	–	–
Cc1nn(C)c(Nc2cc(F)c(F)cc2F)c1-c1ccc(F)cc1F [compound 229]	–	–	–	–	–	–	–	98	17	99	91	0	99	0	–
Cc1nn(C)c(Nc2ncc(Cl)cc2Cl)c1-c1c(F)cccc1Cl [compound 252]	–	–	–	–	–	–	–	100	97	100	100	0	100	0	–
Cc1nn(C)c(Oc2ccc(C#N)cc2Cl)c1-c1c(F)cc(F)cc1F [compound 98]	99	17	100	99	69	100	26	–	–	–	–	–	–	–	–
COc1ccc(Nc2c(-c3ccc(F)cc3F)c(C)nn2C)c(F)c1 [compound 228]	–	–	–	–	–	–	–	99	99	99	80	0	99	0	–
Cc1nn(C)c(Oc2ccc(Br)c(F)c2)c1-c1c(F)cc(F)cc1F [compound 130]	0	0	99	19	0	97	0	–	–	–	–	–	–	–	–
CCOc1ccc(Nc2c(-c3ccc(F)cc3Cl)c(C)nn2C)c(Cl)c1 [compound 325]	–	–	–	–	–	–	–	–	–	–	–	–	–	–	Test J disease control rating [1]: 99%; Test C disease control rating (Alternaria solani): 0%; Test G disease control rating (Septoria tritici): 100%; Test I disease control rating [2]: 97%; Test F disease control rating (Septoria nodorum; Septoria glume blotch on wheat): 0%; Test B disease control rating (Botrytis cinerea): 100%; Test H disease control rating [3]: 0%
Cc1nn(C)c(Nc2ccc(C#N)cc2F)c1-c1c(F)cccc1F [compound 196]	–	–	–	–	–	–	–	98	94	100	98	73	99	9	–
Cc1ncc(Nc2c(-c3ccc(F)cc3Cl)c(C)nn2C)cn1 [compound 269]	–	–	–	–	–	–	–	0	0	67	0	0	80	8	–
Cc1nn(C)c(Nc2ccc(F)cc2Cl)c1-c1ccc(C#N)cc1Cl [compound 338]	–	–	–	–	–	–	–	–	–	–	–	–	–	–	Test J disease control rating [1]: 99%; Test C disease control rating (Alternaria solani): 37%; Test G disease control rating (Septoria tritici): 100%; Test I disease control rating [2]: 100%; Test F disease control rating (Septoria nodorum; Septoria glume blotch on wheat): 40%; Test B disease control rating (Botrytis cinerea): 100%; Test H disease control rating [3]: 8%
Cc1cc(Oc2c(-c3c(F)cc(F)cc3F)c(C)nn2C)ccc1[N+](=O)[O-] [compound 135]	95	0	97	74	0	0	16	–	–	–	–	–	–	–	–
COc1cc(F)c(-c2c(C)nn(C)c2Nc2c(Cl)cc(OC)cc2OC)c(F)c1 [compound 59]	0	0	88	68	0	94	0	–	–	–	–	–	–	–	–
Cc1nn(C)c(Nc2c(F)cc(F)cc2F)c1-c1cccc(F)c1F [compound 203]	–	–	–	–	–	–	–	100	0	98	96	0	99	0	–
COc1cc(F)c(-c2c(C)nn(C)c2Nc2ccc(F)cc2Cl)c(F)c1 [Compound 87, N-(2-chloro-4-fluorophenyl)-4-(2,6-difluoro-4-methoxyphenyl)-1,3-dimethyl-1H-pyrazol-5-amine]	–	–	–	–	–	–	–	–	–	–	–	–	–	–	pest or weed control at 200 µg/mL ([1]; Blumeria graminis, in Triticum aestivum, 192 h, read-out: Test J rating (% disease control)): 100%; pest or weed control at 200 µg/mL (Alternaria solani; Alternaria solani, in Solanum lycopersicum, 168 h, read-out: Test C rating (% disease control)): 100%; pest or weed control at 200 µg/mL (Septoria tritici; Zymoseptoria tritici, in Triticum aestivum, 504 h, read-out: Test G rating (% disease control)): 98%; pest or weed control at 200 µg/mL ([2]; 192 h, read-out: Test I rating (% disease control)): 99%; pest or weed control at 200 µg/mL (Septoria nodorum; Parastagonospora nodorum, in Triticum aestivum, 192 h, read-out: Test F rating (% disease control)): 95%; pest or weed control at 200 µg/mL (Botrytis cinerea; Botrytis cinerea, in Solanum lycopersicum, 120 h, read-out: Test B rating (% disease control)): 100%; pest or weed control at 200 µg/mL ([3]; 144 h, read-out: Test H rating (% disease control)): 85%
COc1ccc(Nc2c(-c3c(F)cc(F)cc3F)c(C)nn2C)cc1OC [compound 93]	0	0	77	9	0	41	0	–	–	–	–	–	–	–	–
COc1ccc(Nc2c(-c3ccc(Cl)cc3Cl)c(C)nn2C)cc1 [compound 355]	–	–	–	–	–	–	–	–	–	–	–	–	–	–	Test J disease control rating [1]: 0%; Test C disease control rating (Alternaria solani): 0%; Test G disease control rating (Septoria tritici): 100%; Test I disease control rating [2]: 91%; Test F disease control rating (Septoria nodorum; Septoria glume blotch on wheat): 0%; Test B disease control rating (Botrytis cinerea): 99%; Test H disease control rating [3]: 3%
COc1cc(F)c(-c2c(C)nn(C)c2Oc2cccc(C#N)c2)c(F)c1 [compound 223]	–	–	–	–	–	–	–	100	9	100	100	99	96	0	–
